Data from article PMC10132233 (Journal of Enzyme Inhibition and Medicinal Chemistry, 2023).

Key:
[1] = target: T1, c-mesenchymal-epithelial transition factor (c-MET) (Homo sapiens, UniProt P08581); assay: Small kinase panel, c-MET; format: biochemical; details: read-out: % kinase inhibition (relative to DMSO control) c-MET
T1 construct: purchased Reaction Biology Co. (Malvern, PA)
Procedure: (§1) Enzyme inhibitory assays were carried out as described in our previous reports in the literature. […] The HotSpot assay platform includes specific kinase/substrate pairs and required cofactors. The base reaction buffer consisted of 20 mM Hepes (pH 7.5), 10 mM MgCl2, 1 mM EGTA, 0.02% Brij35, 0.02 mg/mL BSA, 0.1 mM Na3VO4, 2 mM DTT, and 1% DMSO. The tested compounds were dissolved in 100% DMSO to a specific concentration, and serial dilution was conducted. The reaction mixture containing the tested compound and 33P-ATP was incubated at room temperature for 2 h, and radioactivity was detected using the filter-binding method.

[2] = target: T2, p38α mitogen-activated protein kinase (MAPK14) (Homo sapiens, UniProt Q16539); assay: Small kinase panel, MAPK14; format: biochemical; details: read-out: % kinase inhibition (relative to DMSO control) MAPK14
T2 construct: purchased Reaction Biology Co. (Malvern, PA)
Procedure: as §1

PC3 cells [3] = assay: Cell cycle analysis (PI, ADAMII LS), PC3; format: cell-based, human; details: PC3, compound at its IC50, 24 h
Procedure: Cell cycle progression is responsible for normal cell growth and proliferation. DNA damage can result in apoptosis, which causes cell death, or DNA repair. At specific checkpoints that serve as control mechanisms to guarantee correct cell division, the state of the cells is evaluated. Checkpoints in the cell cycle include the G1 (restriction), S […], and G2/M[29]. Anticancer medications’ function is to halt cell division at these checkpoints. Treatment with potent cytotoxic (as an anticancer) agents can determine at which phase apoptosis occurs in the cell cycle. […] PC3 and 22RV1 cells were treated with compound 9f at its IC50. The comparison data in Table 6 and Figure 3 indicate that compound 9f (test 2) arrested the cell cycle of 22RV1 and PC3 cells at the G2/M phase by 62.74% and 49.43%, respectively (Figure 3). Also, the cell population in G1 and S phases decreases after treatment (test 2) compared to a negative control (test 1).
To determine the effect of the tested compound on the cell cycle distribution of PC3 and 22RV1 cell lines. Cell cycles can be analysed with checking the cell cycle change compared to the control group. Control cells without any treatment were used as a reference point for determining the cell cycle arrest phase for the test sample. Cell cycle analysis was performed using the Cell Cycle Analysis Kit (ADAMII LS, NanoEntek, Seoul, South Korea). Briefly, cancer cells were first seeded in six-well plates (0.8 × 10^6 cells per well) and then incubated for 24 h at 37 °C in a 5% CO2-containing atmosphere. […] 25 µL of sample mixture was loaded into ADAMII LS assay slide, then the slide was incubated at room temperature for 1 min in the dark and run on the ADAMII LS fluorescence cell analyser. Cell cycle distribution was calculated using ADAMII LS software (ADAMII LS, NanoEntek, Seoul, South Korea).

PC3 cells [4] = assay: Apoptosis analysis (Annexin V-PE/DAPI), PC3; format: cell-based, human; details: PC3, compound at its IC50, 24 h
Procedure: The control PC3 and 22RV1 cells and compound-treated cells were stained with PE-Annexin V and DAPI for a more appropriate cell death examination, and the cellular fluorescence analysis was then performed using ADAMII LS (Figures 4–6). Apoptosis is a type of programmed cell death that can be detected using Annexin V and the DAPI reagent. On plasma membranes, annexin V binds to […] and DAPI can bind to DNA in cells. The dot plot and image data detect early and late apoptotic cells using these two fluorophores. […] Moreover, compound 9f-treated PC3 cells went through early apoptosis (6.27%), and late apoptosis phase (16.94%) (Figures 4(D) and 6). Likewise, the fluorescence images for 22RV1 (Figure 5) and PC3 (Figure 6) cells complement the dot plot data, as higher fluorescence of DAPI and RF images clearly distinguished compound 9f-treated cells from control. […]
Annexin V conjugated to fluorochromes (PE) retains its high affinity for phosphatidylserine (PS), making it a sensitive probe for flow cytometric analysis of apoptotic cells. […] When apoptosis is measured over time, cells can often be tracked from PE Annexin V and DAPI negative (viable, or no measurable apoptosis), to PE Annexin V positive and DAPI negative (early apoptosis), and finally to PE Annexin V and DAPI positive (end stage apoptosis and death). […]

T2 sequence (Q16539 whole entry): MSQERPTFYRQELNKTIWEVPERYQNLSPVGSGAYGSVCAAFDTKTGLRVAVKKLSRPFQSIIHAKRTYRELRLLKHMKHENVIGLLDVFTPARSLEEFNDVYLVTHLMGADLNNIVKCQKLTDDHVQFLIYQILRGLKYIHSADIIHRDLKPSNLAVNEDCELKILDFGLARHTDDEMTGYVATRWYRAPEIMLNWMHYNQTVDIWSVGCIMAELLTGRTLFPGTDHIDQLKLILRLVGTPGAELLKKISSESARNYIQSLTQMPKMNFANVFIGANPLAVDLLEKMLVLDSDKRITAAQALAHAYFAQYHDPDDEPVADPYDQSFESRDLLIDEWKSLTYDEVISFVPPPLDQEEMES
T1 sequence (P08581 25-1390): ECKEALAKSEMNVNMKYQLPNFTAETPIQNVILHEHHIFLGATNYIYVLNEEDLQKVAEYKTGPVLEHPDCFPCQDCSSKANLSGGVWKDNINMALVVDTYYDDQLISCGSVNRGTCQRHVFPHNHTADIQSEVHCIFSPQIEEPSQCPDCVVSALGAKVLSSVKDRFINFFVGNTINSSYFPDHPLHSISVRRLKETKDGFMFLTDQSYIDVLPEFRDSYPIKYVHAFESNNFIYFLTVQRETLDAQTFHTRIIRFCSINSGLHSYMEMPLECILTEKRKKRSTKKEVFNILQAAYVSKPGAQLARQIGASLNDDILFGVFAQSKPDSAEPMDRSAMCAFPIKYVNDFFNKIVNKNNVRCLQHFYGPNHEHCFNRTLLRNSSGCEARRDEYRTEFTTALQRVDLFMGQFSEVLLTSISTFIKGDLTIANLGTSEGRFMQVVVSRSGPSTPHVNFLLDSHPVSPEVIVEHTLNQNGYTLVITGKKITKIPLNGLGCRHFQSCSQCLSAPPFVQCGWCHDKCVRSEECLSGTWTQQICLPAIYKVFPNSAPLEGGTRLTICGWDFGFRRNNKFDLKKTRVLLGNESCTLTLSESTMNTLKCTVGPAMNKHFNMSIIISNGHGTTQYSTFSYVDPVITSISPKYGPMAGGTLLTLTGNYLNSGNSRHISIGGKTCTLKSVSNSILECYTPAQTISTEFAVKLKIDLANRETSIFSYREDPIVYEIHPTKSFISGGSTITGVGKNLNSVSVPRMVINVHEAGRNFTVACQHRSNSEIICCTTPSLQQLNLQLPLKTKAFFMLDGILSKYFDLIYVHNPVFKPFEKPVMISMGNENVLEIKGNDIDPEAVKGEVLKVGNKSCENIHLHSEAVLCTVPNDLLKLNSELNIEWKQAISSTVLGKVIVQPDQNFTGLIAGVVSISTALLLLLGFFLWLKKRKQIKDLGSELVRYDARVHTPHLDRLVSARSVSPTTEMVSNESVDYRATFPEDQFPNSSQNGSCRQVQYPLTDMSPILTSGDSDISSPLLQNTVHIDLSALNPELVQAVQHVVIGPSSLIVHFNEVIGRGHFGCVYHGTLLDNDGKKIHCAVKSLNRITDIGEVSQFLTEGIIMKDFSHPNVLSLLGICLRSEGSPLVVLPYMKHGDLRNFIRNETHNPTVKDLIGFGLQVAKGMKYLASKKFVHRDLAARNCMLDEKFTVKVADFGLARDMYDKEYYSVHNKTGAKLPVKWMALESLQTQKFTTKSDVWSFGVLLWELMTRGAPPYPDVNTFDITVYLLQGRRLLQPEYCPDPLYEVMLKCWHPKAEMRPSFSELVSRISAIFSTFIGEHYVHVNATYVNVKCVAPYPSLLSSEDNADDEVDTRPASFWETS

COc1cc2ncnc(Nc3ccc(Oc4cccc(C(F)(F)F)c4)c(Cl)c3)c2cc1OCCCCn1ccnc1[N+](=O)[O-] [Compound 9f, N-(3-Chloro-4-(3-(trifluoromethyl)phenoxy)phenyl)-7-methoxy-6-(4-(2-nitro-1H-imidazol-1-yl)butoxy)quinazolin-4-amine]
inhibition at 10 µM [1]: 24.6%
inhibition at 10 µM [2]: 24.3%
G0/G1 phase Percent (PC3 cells [3]): 7.22%
G2/M phase Percent (PC3 cells [3]): 49.43%
S phase Percent (PC3 cells [3]): 28.14%
early apoptosis (E.A) (PC3 cells [4]): 6.27%
late apoptosis (L.A) (PC3 cells [4]): 16.94%
